Source: patent US20210179655A1, “Prodrugs of a JAK Inhibitor Compound for Treatment of Gastrointestinal Inflammatory Disease” (THERAVANCE BIOPHARMA R&D IP, LLC, priority 2015, published 2021)

How the values were obtained:
[1] = system: oxazolone-induced colitis; assay: Mouse model of oxazolone-induced colitis; assay type: in vivo
Description: Oxazolone-induced colitis is an experimental model that has a histological resemblance to human ulcerative colitis (Heller et al. […], 2002, 17, 629-638). Adult BALB/C mice (25-28 g, 9-12 weeks of age) from BioNeeds (India) were used in the assay. On day 1, animals were lightly anesthetized with isoflurane and the hairs between the shoulder were carefully removed before oxazolone (6 mg/mouse, 100 μL, 4:1 acetone: olive oil formulation) or vehicle solution was slowly applied for skin sensitization. Six days after skin sensitization, the mice were fasted overnight, anesthetized with ketamine and xylazine administered IP, and a 1 mL syringe filled with oxazolone solution, was inserted carefully ˜3.8 cm into the colon of the mouse. Animals were kept in a head down position and oxazolone (0.5 mg/50 μL/mouse in 50% ethanol) or 50% ethanol/saline was rectally instilled very slowly over a minute. The mice were held vertically (head down) for another minute to ensure that the entire oxazolone solution remained inside the colon. Drug treatment (PO, BID or TID) or vehicle was initiated the evening prior to the oxazolone intrarectal (IR) challenge. On both first (Day 1) and second (Day 2) days post-oxazolone IR challenge, the Disease Activity Index (DAI) was assessed by treatment-blinded experimenters for each mouse, according to the following subscores: stool consistency (0, normal; 2, loose; 4, diarrhea), gross bleeding and hemoccult test (0, absence; 2, blood tinged; 4, overt blood presence), and weight loss (0, none; 1, 1%-5%; 2, 6%-10%; 3, 11%-15%; 4, more than 15%); DAI=average of (stool consistency+blood presence+weight loss scores).
An area-under-the-curve (AUC) calculation based on total DAI scores was performed to track disease progression during the course of the experiment. AUC for each experimental group was calculated as: AUC=[(Day 1−Day 0)*Average (DAI Score of Day 0 & Day 1)]+[(Day 2−Day 1)*Average (DAI Score of Day 1 & Day 2)]. A Student's t-test compared the DAI AUC score of the vehicle/vehicle and vehicle/oxazolone groups to evaluate whether disease was induced following oxazolone treatment. This was followed by a one way ANOVA, with Dunnett's post hoc test, to compare the DAI AUC score of the vehicle/oxazolone and test compound/oxazolone groups. Statistical significance was defined by an α level set at p<0.05.

[2] = Rat colon fecal homogenate stability; assay type: in vitro ADME; conditions: male, rat colon fecal homogenate supernatant, read-out: T½ (In vitro colonic stability, loss of pro-drug)
Description: The objective of this study was to determine the stability of the present compounds in rat colon fecal homogenate, i.e. the half-life for decomposition in the presence of the β-glucuronidase in rat colon feces.
Following sacrifice of a naïve male rat (˜300 g) by cardiac puncture exsanguination, the colon was ligated and removed to an anaerobic chamber (AS-580, Anaerobe Systems). The fecal content was removed within the chamber and was diluted 1:10 (1 gram to 9 mL phosphate buffer) and then homogenized using a handheld Omni Tissue Master. The fecal homogenate was centrifuged at 2000 g for 10 min to remove bulk and the supernatant was removed and used for the incubations.
Test articles and a positive control (sulfasalazine) were prepared as 10 mM DMSO stocks. The final substrate concentration of each assay was 10 μM (30 μM for compound 5). Reactions were started by adding a 5 μL aliquot of diluted test compound stock into 300 μL of rat fecal supernatant-homogenate. At 0, 15, 30, 60, 90, and 120 min post reaction initiation, a 50 μL aliquot was removed into 200 μL of acetonitrile with 3% formic acid and an internal standard molecule. All samples were centrifuged at 2000 g for 10 min after which 50 μL of supernatant was diluted into 150 μL of water for analysis on an LC-MS system. In vitro half-lives for loss of pro-drug were calculated as follows: (T½=0.693/elimination rate constant).

[3] = Metabolic stability of comparison compounds in rat colon content; assay type: in vitro ADME; conditions: 10 μM in rat colonic content, up to 120 min
Description: Colonic fecal content was harvested from a naïve male Sprague Dawley rat and was diluted 1:10 (1 gram to 9 mL phosphate buffer) and then homogenized using a handheld Omni Tissue Master. […] A 5 μL aliquot of diluted test compound was spiked into 300 μL of rat colonic content homogenate to begin the reaction at 37° C. Aliquots (50 μL) were removed from the incubation at the following time points (0, 15, 50, 85, and 120 min) and added into 200 μL of ACN with 3% formic acid and an internal standard molecule. […] All samples were centrifuged at 2000×g for 10 min after which 50 μL of supernatant was diluted into 150 μL of water and analyzed using a Thermo Q-Exactive LC-MS system. GraphPad Prism and Microsoft Excel were used to tabulate and plot the data.

splenic NK cells = assay: Immunosuppression effects in mouse splenic natural killer (NK) cells; assay type: in vivo; conditions: mouse, oral dosing for three days
Description: Adult male Balb/C mice (12-14 weeks of age) from Harlan were used for the study. […] Spleens were harvested 30 min or 3 h post last dose and crushed immediately for cell subtype staining. Prior to fixation, fluorophore-labelled antibodies for CD19 (FITC; B cells), CD3e (PE; pan T cells) and DX5 (APC; NK cells) were incubated with splenocyte samples from each animal to allow for simultaneous, multiple subtype % analysis on the flow cytometer. The number of total spleen cells for each animal was measured by Scepter™ 2.0 Handheld Automated Cell Counter.
The absolute number of lymphocyte subtype population (e.g., splenic B, T and NK cells) was calculated from the percentage of each subtype times total spleen cells for each animal. A one way ANOVA, with Dunnett's post hoc test, was used to compare the splenic lymphocytes number of the vehicle and test compound groups. The a level was set at p<0.05. Data were presented as the mean SEM for each group.

In the case of `C[C@@H]1CCN(C(=O)CC#N)C[C@@H]1N(C)c1ncnc2c1ccn2C(=O)N(C)CCN(C)C(=O)OCc1ccc(O[C@@H]2O[C@H](C(=O)O)[C@@H](O)[C@H](O)[C@H]2O)cc1` [Compound 4, (2S,3S,4S,5R,6S)-6-(4-((((2-(4-(((3R,4R)-1-(2-cyanoacetyl)-4-methylpiperidin-3-yl)(methyl)amino)-N-methyl-7H-pyrrolo[2,3-d]pyrimidine-7-carboxamido)ethyl)(methyl)carbamoyl)oxy)methyl)phenoxy)-3,4,5-trihydroxytetrahydro-2H-pyran-2-carboxylic acid], the “reversal of oxazolone-induced colitis (DAI AUC score)” value ([1]; separate experiment, 3, 10, and 30 mg/kg, PO, BID, similar magnitude to tofacitinib 30 mg/kg) is reported as “significant reversal” and the half-life at 10 μM [2] is reported as 1 to 13 min.

In the case of `Cc1cc(COC(=O)N(C)CCN(C)C(=O)n2ccc3c(N(C)[C@H]4CN(C(=O)CC#N)CC[C@H]4C)ncnc32)ccc1O[C@@H]1O[C@H](C(=O)O)[C@@H](O)[C@H](O)[C@H]1O` [Compound 5, (2S,3S,4S,5R,6S)-6-(4-((((2-(4-(((3R,4R)-1-(2-cyanoacetyl)-4-methylpiperidin-3-yl)(methyl)amino)-N-methyl-7H-pyrrolo[2,3-d]pyrimidine-7-carboxamido)ethyl)(methyl)carbamoyl)oxy)methyl)-2-methylphenoxy)-3,4,5-trihydroxytetrahydro-2H-pyran-2-carboxylic acid], the half-life at 30 μM ([2]; 30 μM) is reported as 6 min.

Compound `C[C@@H]1CCN(C(=O)CC#N)C[C@@H]1N(C)c1ncnc2c1ccn2C(=O)N(C)CCN(C)C(=O)OCc1ccc(O[C@@H]2O[C@H](C(=O)O)[C@@H](O)[C@H](O)[C@H]2O)c(Cl)c1` [Compound 6, (2S,3S,4S,5R,6S)-6-(2-chloro-4-((((2-(4-(((3R,4R)-1-(2-cyanoacetyl)-4-methylpiperidin-3-yl)(methyl)amino)-N-methyl-7H-pyrrolo[2,3-d]pyrimidine-7-carboxamido)ethyl)(methyl)carbamoyl)oxy)methyl)phenoxy)-3,4,5-trihydroxytetrahydro-2H-pyran-2-carboxylic acid] has a half-life at 10 μM [2] of 7 min.

With `COc1cc(COC(=O)N(C)CCN(C)C(=O)n2ccc3c(N(C)[C@H]4CN(C(=O)CC#N)CC[C@H]4C)ncnc32)ccc1O[C@@H]1O[C@H](C(=O)O)[C@@H](O)[C@H](O)[C@H]1O` [Compound 7, (2S,3S,4S,5R,6S)-6-(4-((((2-(4-(((3R,4R)-1-(2-cyanoacetyl)-4-methylpiperidin-3-yl)(methyl)amino)-N-methyl-7H-pyrrolo[2,3-d]pyrimidine-7-carboxamido)ethyl)(methyl)carbamoyl)oxy)methyl)-2-methoxyphenoxy)-3,4,5-trihydroxytetrahydro-2H-pyran-2-carboxylic acid] the half-life at 10 μM [2] was 3 to 8 min.

With `CN(CCN(C)C(=O)OCc1ccc(O[C@@H]2O[C@H](C(=O)O)[C@@H](O)[C@H](O)[C@H]2O)c([N+](=O)[O-])c1)C(=O)Nc1ccc(O)c(C(=O)O)c1` [Compound C-1] the “generation of active metabolite from the pro-drug” value [3] was “failed to generate any measurable amounts”.

In the case of `Cc1cc(S(C)(=O)=O)ncc1-c1ccc2c(c1)cc(-c1cncc(F)c1C)n2C(=O)N(C)CCN(C)C(=O)OCc1ccc(O[C@@H]2O[C@H](C(=O)O)[C@@H](O)[C@H](O)[C@H]2O)c([N+](=O)[O-])c1` [Compound C-2], the “generation of active metabolite from the pro-drug” value [3] is reported as “failed to generate any measurable amounts”.

With `C[C@@H]1CCN(C(=O)CC#N)C[C@@H]1N(C)c1ncnc2[nH]ccc12` [Tofacitinib, 3-((3R,4R)-4-methyl-3-(methyl(7H-pyrrolo[2,3-d]pyrimidin-4-yl)amino)piperidin-1-yl)-3-oxopropanenitrile, reference compound] the “In vivo efficacy (oxazolone colitis), effective dose” value ([1]; Effective dose that exhibits a comparable pharmacological effect in the oxazolone model compared to its vehicle) was 30 mg/kg and the “Systemic functional activity (splenic NK depletion)” value (splenic NK cells) was 10 mg/kg.
